IC50 data for 44 molecules are collected here from patent US20110144056A1, “PYRAZOLE DERIVATIVES USEFUL AS INHIBITORS OF FAAH” (priority 2008, published 2011).

What is called IC50 is the concentration that gives 50% inhibition.

The experiment has as its target T1, FAAH (Homo sapiens, UniProt O00519).
T1 construct: The full length FAAH was subcloned into the mammalian expression vector, pcDEF.neo; expressed in transfected cells; cDNA from Origene
T1 sequence (O00519 1-579): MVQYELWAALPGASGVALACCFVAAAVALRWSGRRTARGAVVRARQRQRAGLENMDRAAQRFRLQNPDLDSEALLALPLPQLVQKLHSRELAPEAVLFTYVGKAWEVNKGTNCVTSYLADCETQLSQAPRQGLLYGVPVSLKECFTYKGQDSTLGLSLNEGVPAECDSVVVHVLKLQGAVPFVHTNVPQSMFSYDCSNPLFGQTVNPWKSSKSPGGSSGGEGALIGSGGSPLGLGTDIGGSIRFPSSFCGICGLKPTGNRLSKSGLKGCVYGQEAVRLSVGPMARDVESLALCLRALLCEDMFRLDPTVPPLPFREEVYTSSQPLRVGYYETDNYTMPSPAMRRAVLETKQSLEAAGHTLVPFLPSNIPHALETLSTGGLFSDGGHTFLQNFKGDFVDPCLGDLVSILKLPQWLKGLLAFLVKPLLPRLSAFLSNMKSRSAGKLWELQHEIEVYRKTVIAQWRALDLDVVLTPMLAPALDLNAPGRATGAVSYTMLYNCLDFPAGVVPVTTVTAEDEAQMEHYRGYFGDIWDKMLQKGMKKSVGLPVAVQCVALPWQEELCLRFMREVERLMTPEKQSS
In words: FAAH enzyme assay, lysate of CHO cells expressing human FAAH. The experiment is classed as biochemical. The following applies: cell lysate, read-out: FAAH Human Cell Lysate IC50. The source says: To assist in assay development stable cell lines for human, murine and rat full length FAAH were developed. Human FAAH cDNA (Accession No: NM_001441.1) was purchased from Origene (Rockville, Md.). The full length FAAH was subcloned into the mammalian expression vector, pcDEF.neo, using XbaI and […] restriction sites and used for stable cell line generation.
CHO cells expressing FAAH were used to prepare either crude cell lysate or microsome fractions. To harvest cells, tissue culture media was decanted, the monolayer washed three times with Ca^++Mg^++ free PBS and cells recovered after 15 min in enzyme free dissociation media (Millipore Corp, Billerica, Mass.). Cells were collected by centrifuging at 2000 rpm for 15 min. and the cell pellet re-suspended with 50 mM HEPES (pH 7.4) containing 1 mM EDTA and the protease inhibitors aprotinin (1 mg/ml) and leupeptin (100 μM). The suspension was sonicated at 4° C. and the cell lysate recovered after centrifuging at 12,000×g (14,600 rpm, SS34 rotor) for 20 min at 4° C. to form a crude pellet of cell debris, nuclei, peroxisomes, lysosomes, and mitochondria; the supernatant or cell lysate was used for FAAH enzyme assay. In some cases, microsomes fractions enriched in FAAH were prepared by centrifuging the cell lysate further at 27,000 rpm (100,000×g) in SW28 rotor for 50 minutes at 4° C. The pellet containing FAAH-enriched microsomes was re-suspend in 50 mM HEPES, (pH 7.4) 1 mM EDTA, and any remaining DNA sheared by passage of material through a 23 gauge needle and aliquots of enzyme were store at −80° C. prior to use.
(American Radiolabeled Chemicals; 1 mCi/ml) with FAAH (Life Sciences (1995), 56, 1999-2005 and Journal of Pharmacology and Experimented Therapeutics (1997), 283, 729-734), Analytical. Biochemistry (2003), 318, 270-5. In addition, routine assays were performed monitoring hydrolysis of arachidonyl-7-amino-4-methylcoumarin amide (AAMCA) by following increase in fluorescence upon release of 7-amino 4-methyl coumarin (λEX=355 nm, (λEM=460 nm). Analytical. Biochemistry (2005). 343, 143-51.
Assays are performed on either cell lysate or microsome fractions prepared as described or in whole cell format employing either the fluorescent substrate AAMCA (Cayman chemical, Ann Arbor, Mich.,) or ^3H-anandmaide ([ETHANOLAMINE-1-3H]American Radiolabeled Chemicals; 1 mCi/ml). The cell lysate or microsome assay is performed in Costar black wall, clear bottom plates by adding FAAH_CHO (whole cell, cell lysate or microsome) in assay buffer (50 mM Phosphate, pH 8.0, 1 mM EDTA, 200 mM KCl, 0.2% glycerol, 0.1% fatty acid free BSA) to each well, followed by either DMSO or compound and allowed to incubate at 22-25° C. for fifteen minutes. AAMCA substrate was used to achieve a final concentration of 1 μM and reaction allowed to proceed at room temperature for 1-3 hours. Fluorescent release as a measure of FAAH activity was monitored by reading the plate in a CytoFluor Multiplate Reader ([…]). Whole cell assay is conducted with cells harvested after rinsing tissue culture flasks three times with Ca^++Mg^++ free PBS, incubating for 10 mm in Enzyme free dissociation media and centrifuging for 5 minutes at 1,000 rpm in table top centrifuge. Cells are resuspended in assay buffer at desired cell number in (4×10^4 cells/assay in 96-well format; 1×10^4 cells/assay in 384-well format) and assayed as described.
Alternatively, assays are performed using anandamide [ethanolamine 1-^3H] (specific activity of 10 Ci/mmol) diluted with cold anandamide to achieve a final assay concentration of 1 μM anandamide (˜50,000 cpm). Enzyme (CHO cell lysate, brain or liver homogenate) is incubated in assay buffer (50 mM Phosphate, pH 8.0, 1 mM EDTA, 200 mM KCl, 0.2% glycerol, 0.1% fatty acid free BSA) with inhibitor at 25° C. for 30 minutes. The reaction was terminated by addition of 2 volumes of chloroform:methanol (1:1) and mixed by vortexing. […]
Take `O=C1NCCc2cc(-c3nn(-c4ccc(F)cc4)cc3Sc3ccc(Cl)cc3)ccc21` [Example 308, 6-{4-[(4-chlorophenyl)sulfanyl]-1-(4-fluorophenyl)-1H-pyrazol-3-yl}-3,4-dihydroisoquinolin-1(2H)-one]: the IC50 worked out at 18 nM.

As for `CC(C)(O)c1ccc(-c2nn(-c3ccc(F)cn3)cc2Sc2ccc(Cl)cc2)nn1` [Example 349], the IC50 worked out at 59 nM.

Consider `CCn1cc(Sc2ccc(Cl)cc2)c(-c2ccc3c(c2)CCN(CCF)C3=O)n1` [Example 341], for which the IC50 worked out at 47 nM.

As for `Cc1ccc2cc(-c3n[nH]cc3Sc3ccc(Cl)cc3)ccc2n1` [Example 385], the IC50 is 192 nM.

Turning to `CC(C)(O)c1ccc2cc(-c3n[nH]cc3Sc3ccc(Cl)cc3)ccc2n1` [Example 358], the half-inhibitory concentration (IC50) turned out to be 423 nM.

Turning to `Cc1ccc2cc(-c3nn(C4CC4)cc3Sc3ccc(Cl)cc3)ccc2n1` [Example 384], the IC50 came out at 18 nM.

Consider `N#Cc1ccc2cc(-c3n[nH]cc3Sc3ccc(Cl)cc3)ccc2n1` [Example 363], for which the IC50 came to 23 nM.

Regarding `CCNC(=O)c1ccc2cc(-c3nn(CC(F)F)cc3Sc3ccc(Cl)cc3)ccc2n1` [Example 367], the IC50 was 20 nM.

With `CCNC(=O)c1ccc2cc(-c3nn(CCF)cc3Sc3ccc(Cl)cc3)ccc2n1` [Example 366], the IC50 turned out to be 7.2 nM.

As to `CN(C)C(=O)c1ccc2cc(-c3nn(C4CC4)cc3Sc3ccc(Cl)cc3)ccc2n1` [Example 400], the IC50 came out at 39 nM.

For the molecule `FC(F)c1ccc2cc(-c3n[nH]cc3Sc3ccc(Cl)cn3)ccc2n1` [Example 332], the IC50 was 268 nM.

Turning to `CN(C)C(=O)c1ccc2cc(-c3nn(C4CC4)cc3Sc3ncc(Cl)cn3)ccc2n1` [Example 401], the IC50 turned out to be 291 nM.

As to `CC(C)(O)c1ccc(-c2nn(-c3cnn(C4CC4)c3)cc2Sc2ccc(Cl)cc2)nn1` [Example 351], the IC50 was determined as 246 nM.

Regarding `CCN1CCc2cc(-c3nn(-c4ccccn4)cc3Sc3ccc(Cl)cc3)ccc2C1=O` [Example 338], the IC50 is 6 nM.

`CCOC(=O)c1cnc2cc(-c3nn(CCF)cc3Sc3ccc(Cl)cc3)cnc2c1` [Example 393]: the IC50 amounted to 16 nM.

With `CCOC(=O)c1ccc2cc(-c3n[nH]cc3Sc3ccc(Cl)cc3)ccc2n1` [Example 354], the IC50 was determined as 0.93 nM.

Take `CCn1cc(-n2cc(Sc3ccc(Cl)cc3)c(-c3ccc4c(=O)n(-c5cnn(CC)c5)cnc4c3)n2)cn1` [Example 348]: the IC50 was found to be 36 nM.

On to `O=c1[nH]cnc2cc(-c3nn(C4CC4)cc3Sc3ccc(Cl)cc3)ccc12` [Example 315, 7-{4-[(4-chlorophenyl)sulfanyl]-1-cyclopropyl-1H-pyrazol-3-yl}quinazolin-4(3H)-one], for which the IC50 was 86 nM.

On to `CC(=O)N1CCc2cc(-c3n[nH]cc3Sc3ccc(Cl)cc3)ccc2C1` [Example 359], for which the IC50 amounted to 101 nM.

With `OCc1ccc2cc(-c3nn(CCF)cc3Sc3ccc(Cl)cc3)ccc2n1` [Example 372], the IC50 stood at 30 nM.

Regarding `CC(=O)N1CCc2cc(-c3nn(CCF)cc3Sc3ccc(Cl)cc3)ccc2C1` [Example 362], the half-maximal inhibitory concentration (IC50) turned out to be 48 nM.

For `CCNC(=O)c1cnc2cc(-c3nn(CCF)cc3Sc3ccc(Cl)cc3)ccc2c1` [Example 394], the IC50 was found to be 15 nM.

Regarding `OCc1ccc2cc(-c3n[nH]cc3Sc3ccc(Cl)cc3)ccc2n1` [Example 375], the IC50 worked out at 11 nM.

For the molecule “6-{4-[(5-chloropyridin-2-yl)sulfanyl]-1-(2-fluoroethyl)-1H-pyrazol-3-yl}-2-(difluoromethyl)quinoline [Example 333]”, the IC50 is 79 nM.

For `CCNC(=O)c1ccc2cc(-c3n[nH]cc3Sc3ccc(Cl)cc3)ccc2n1` [Example 355], the IC50 stood at 1.38 nM.

As to `FC(F)c1ccc2cc(-c3nn(-c4ccccn4)cc3Sc3ccc(Cl)cc3)ccc2n1` [Example 379], the IC50 is 4.9 nM.

For `CCOC(=O)c1ccc2cc(-c3n[nH]cc3Sc3ccc(Cl)cn3)ccc2n1` [Example 398], the concentration for half-maximal inhibition (IC50) was determined as 0.77 nM.

For `CCNC(=O)c1ccc2cc(-c3nn(C(C)C)cc3Sc3ccc(Cl)cc3)ccc2n1` [Example 368], the IC50 was found to be 24 nM.

`O=c1[nH]cnc2cc(-c3n[nH]cc3Sc3ccc(Cl)cc3)ccc12` [Example 312, 7-{4-[(4-chlorophenyl)sulfanyl]-1H-pyrazol-3-yl}-quinazolin-4(3H)-one]: the IC50 was 228 nM.

Regarding `CC(C)(O)c1ccc2cc(-c3nn(CCF)cc3Sc3ccc(Cl)cc3)ccc2n1` [Example 357], the IC50 amounted to 121 nM.

Regarding `CN(C)C(=O)c1ccc2cc(-c3nn(C4CC4)cc3Sc3ccc(Cl)cn3)ccc2n1` [Example 331, 6-{4-[(5-chloropyridin-2-yl)sulfanyl]-1-cyclopropyl-1H-pyrazol-3-yl}-N,N-dimethylquinoline-2-carboxamide], the 50% inhibitory concentration (IC50) worked out at 77 nM.

For the molecule `CCN1CCc2cc(-c3nn(CC)cc3Sc3ccc(Cl)cc3)ccc2C1=O` [Example 340], the IC50 worked out at 25 nM.

Take `CCOC(=O)c1cnc2cc(-c3n[nH]cc3Sc3ccc(Cl)cc3)cnc2c1` [Example 387]: the IC50 came to 14 nM.

Regarding `Clc1ccc(Sc2cn(C3CC3)nc2-c2ccc3nc(Cl)ccc3c2)cc1` [Example 386], the IC50 is 94 nM.

As for `CCOC(=O)c1ccc2cc(-c3nn(C4CC4)cc3Sc3ccc(Cl)cn3)ccc2n1` [Example 399], the IC50 came out at 11 nM.

As to `N#Cc1ccc2cc(-c3nn(C4CC4)cc3Sc3ccc(Cl)cn3)ccc2n1` [Example 397], the IC50 was 172 nM.

In the case of `CC(C)(O)c1ccc(-c2nn(-c3ccc(F)cn3)cc2Sc2ccc(Cl)cn2)nn1` [Example 350], the half-maximal inhibitory concentration (IC50) was 103 nM.

With `Fc1ccc(-n2cc(Sc3ccc(Cl)cc3)c(-c3ccc4nc(C(F)F)ccc4c3)n2)cc1` [Example 380], the IC50 turned out to be 24 nM.

In the case of `O=C1NCCc2cc(-c3nn(-c4ccccn4)cc3Sc3ccc(Cl)cc3)ccc21` [Example 335], the concentration for half-maximal inhibition (IC50) came out at 8 nM.

On to `CCNC(=O)c1ccc2cc(-c3nn(CC(C)C)cc3Sc3ccc(Cl)cc3)ccc2n1` [Example 370], for which the IC50 worked out at 12 nM.

Consider `CCn1cc(-n2cc(Sc3ccc(Cl)cc3)c(-c3ccc4c(c3)CCNC4=O)n2)cn1` [Example 344], for which the IC50 turned out to be 16 nM.

With `CCn1cc(-n2cc(Sc3ccc(Cl)cc3)c(-c3ccc4c(=O)[nH]cnc4c3)n2)cn1` [Example 347], the IC50 stood at 12 nM.

`O=C1CCc2cc(-c3nn(-c4ccccn4)cc3Sc3ccc(Cl)cc3)ccc2N1` [Example 345]: the half-maximal inhibitory concentration (IC50) was determined as 36 nM.

As for `CCC(=O)N1CCc2cc(-c3nn(CCF)cc3Sc3ccc(Cl)cc3)ccc2C1` [Example 390], the IC50 was 62 nM.
